According to BindingDB's records for doi:10.1007/bf02245606 (Janssen Research Foundation, 1996):

Experiments:
[1] = target: T1, Alpha-2C adrenergic receptor (Rattus norvegicus, UniProt P22086)
T1 sequence (P22086 whole entry): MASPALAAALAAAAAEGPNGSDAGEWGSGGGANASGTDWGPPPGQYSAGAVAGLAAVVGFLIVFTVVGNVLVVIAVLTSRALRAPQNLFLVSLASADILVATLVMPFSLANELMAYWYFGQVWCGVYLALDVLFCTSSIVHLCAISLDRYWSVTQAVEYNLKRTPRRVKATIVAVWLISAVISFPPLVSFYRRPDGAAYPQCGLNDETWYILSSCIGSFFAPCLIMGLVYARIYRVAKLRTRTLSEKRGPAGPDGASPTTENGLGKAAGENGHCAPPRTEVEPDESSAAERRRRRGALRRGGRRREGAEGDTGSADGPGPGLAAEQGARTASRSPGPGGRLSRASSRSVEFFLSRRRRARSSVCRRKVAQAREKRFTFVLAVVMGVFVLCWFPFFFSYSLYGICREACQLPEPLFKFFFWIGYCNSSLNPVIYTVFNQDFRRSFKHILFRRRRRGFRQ

[2] = target: T2, 5-hydroxytryptamine receptor 1A (Rattus norvegicus, UniProt P19327)
T2 sequence (P19327 whole entry): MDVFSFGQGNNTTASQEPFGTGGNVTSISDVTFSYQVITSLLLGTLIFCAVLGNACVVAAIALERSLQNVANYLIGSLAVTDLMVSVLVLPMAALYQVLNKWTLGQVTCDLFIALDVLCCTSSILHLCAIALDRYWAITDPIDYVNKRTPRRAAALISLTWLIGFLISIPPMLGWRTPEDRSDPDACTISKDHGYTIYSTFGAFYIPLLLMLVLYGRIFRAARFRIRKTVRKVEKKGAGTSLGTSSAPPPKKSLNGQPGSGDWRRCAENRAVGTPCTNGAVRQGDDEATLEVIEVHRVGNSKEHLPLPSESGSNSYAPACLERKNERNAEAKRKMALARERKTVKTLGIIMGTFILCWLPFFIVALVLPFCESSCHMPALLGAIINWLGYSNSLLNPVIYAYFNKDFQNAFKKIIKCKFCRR

Ki [1] | SMILES | Ki [2]
0.0037 µM | CN1CC2c3ccccc3Oc3ccc(Cl)cc3C2C1 (stereo not drawn) [NSC_163091] | 
0.017 µM | Cc1nc2n(c(=O)c1CCN1CCC(c3noc4cc(F)ccc34)CC1)CCCC2O (stereo not drawn) [9-OH-risperidone] | 0.38 µM
 | O=C1NCN(c2ccccc2)C12CCN(CC1COc3ccccc3O1)CC2 (stereo not drawn) [8-(2,3-Dihydro-benzo[1,4]dioxin-2-ylmethyl)-1-phenyl-1,3,8-triaza-spiro[4.5]decan-4-one] | 0.00084 µM
0.68 µM | NC(=O)C1(N2CCCCC2)CCN(CCCC(=O)c2ccc(F)cc2)CC1 [CAS_1893-33-0] | 

SMILES | Ki [1] | Ki [2]
O=C1NCN(c2ccccc2)C12CCN(CCCC(c1ccc(F)cc1)c1ccc(F)cc1)CC2 | 5 µM | 0.11 µM
O=C1NCCN1CCN1CCC(c2cn(-c3ccc(F)cc3)c3ccc(Cl)cc23)CC1 [1-[2-[4-[5-chloro-1-(4-fluorophenyl)-indol-3-yl]-1-piperidyl]ethyl]imidazolidin-2-one] | 1.68 µM | 
